Assays:
Experiment in all cases: relative viability (nuclei count vs DMSO), 5 days (fraction); higher = more cells survive
[1] = system: EMC-BAC-2
In short: (§1)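 A single step with final 0.05% Triton X-100, 1% formaldehyde and 1 ug/ml Hoechst fixed the cells and stained nuclei 5 days after treatment. Lung cancer cell lines in 1536-well plates had been treated by pin tool the day after seeding with one drug alone or a fixed anchor-drug dose plus five library-drug doses (not always all listed) in √10 steps, and nuclei were counted on 4× images. Relative viability is the ratio of nuclei in treated wells to nuclei in vehicle wells, taken as the median of duplicate plates.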

[2] = system: EPLC-272H
In short: as §1

[3] = system: H3255
In short: as §1

[4] = system: HOP-62
In short: as §1

[5] = system: LCLC-97TM1
In short: as §1

[6] = system: LXF-289
In short: as §1

[7] = system: NCI-H1563
In short: as §1

[8] = system: NCI-H1734
In short: as §1

[9] = system: NCI-H1915
In short: as §1

[10] = system: NCI-H1993
In short: as §1

[11] = system: NCI-H2009
In short: as §1

[12] = system: NCI-H2023
In short: as §1

[13] = system: NCI-H2085
In short: as §1

[14] = system: NCI-H2126
In short: as §1

[15] = system: NCI-H2347
In short: as §1

[16] = system: NCI-H322M
In short: as §1

[17] = system: NCI-H647
In short: as §1

[18] = system: NCI-H661
In short: as §1

[19] = system: NCI-H727
In short: as §1

[20] = system: PC-14
In short: as §1

[21] = system: SK-LU-1
In short: as §1

[22] = system: SW 1573
In short: as §1

In the case of CCN(CC)CCCCNc1ncc2cc(-c3cc(OC)cc(OC)c3)c(NC(=O)NC(C)(C)C)nc2n1 + COc1cccc2cc(-c3nc([C@H]4CC[C@H](C(=O)O)CC4)n4ncnc(N)c34)[nH]c12 [OSI-027] (partner 0.5 µM), the relative viability ([1]; first compound 0.01 µM) is reported as 0.38, the relative viability ([1]; first compound 0.03162 µM) is reported as 0.399 and the relative viability ([1]; first compound 0.1 µM) is reported as 0.398. It also gave a relative viability ([1]; first compound 0.3162 µM) of 0.471, a relative viability ([1]; first compound 1 µM) of 0.358 and a relative viability ([2]; first compound 0.01 µM) of 0.272. It also gave a relative viability ([2]; first compound 0.03162 µM) of 0.281, a relative viability ([2]; first compound 0.1 µM) of 0.234 and a relative viability ([2]; first compound 0.3162 µM) of 0.28. The relative viability ([2]; first compound 1 µM) was 0.301, the relative viability ([3]; first compound 0.01 µM) was 0.524 and the relative viability ([3]; first compound 0.03162 µM) was 0.547. The relative viability ([3]; first compound 0.1 µM) was 0.698, the relative viability ([3]; first compound 0.3162 µM) was 0.448 and the relative viability ([3]; first compound 1 µM) was 0.538. The relative viability ([4]; first compound 0.01 µM) was 0.89, the relative viability ([4]; first compound 0.03162 µM) was 0.873 and the relative viability ([4]; first compound 0.1 µM) was 1.12. The relative viability ([4]; first compound 0.3162 µM) was 1.11, the relative viability ([4]; first compound 1 µM) was 0.771 and the relative viability ([5]; first compound 0.01 µM) was 0.553. It also gave a relative viability ([5]; first compound 0.03162 µM) of 0.518, a relative viability ([5]; first compound 0.1 µM) of 0.513 and a relative viability ([5]; first compound 0.3162 µM) of 0.619. It also gave a relative viability ([5]; first compound 1 µM) of 0.367, a relative viability ([6]; first compound 0.01 µM) of 0.825 and a relative viability ([6]; first compound 0.03162 µM) of 0.823. It also gave a relative viability ([6]; first compound 0.1 µM) of 0.973, a relative viability ([6]; first compound 0.3162 µM) of 0.812 and a relative viability ([6]; first compound 1 µM) of 0.715. It also gave a relative viability ([7]; first compound 0.01 µM) of 0.766, a relative viability ([7]; first compound 0.03162 µM) of 0.723 and a relative viability ([7]; first compound 0.1 µM) of 0.835. For the same compound, the relative viability ([7]; first compound 0.3162 µM) was 0.768, the relative viability ([7]; first compound 1 µM) was 0.584 and the relative viability ([8]; first compound 0.01 µM) was 0.647. The relative viability ([8]; first compound 0.03162 µM) was 0.61, the relative viability ([8]; first compound 0.1 µM) was 0.634 and the relative viability ([8]; first compound 0.3162 µM) was 0.666. For the same compound, the relative viability ([8]; first compound 1 µM) was 0.526, the relative viability ([9]; first compound 0.01 µM) was 0.377 and the relative viability ([9]; first compound 0.03162 µM) was 0.645. For the same compound, the relative viability ([9]; first compound 0.1 µM) was 0.775, the relative viability ([9]; first compound 0.3162 µM) was 0.721 and the relative viability ([9]; first compound 1 µM) was 0.643. The relative viability ([10]; first compound 0.01 µM) was 0.259, the relative viability ([10]; first compound 0.03162 µM) was 0.559 and the relative viability ([10]; first compound 0.1 µM) was 0.532. For the same compound, the relative viability ([10]; first compound 0.3162 µM) was 0.604, the relative viability ([10]; first compound 1 µM) was 0.535 and the relative viability ([11]; first compound 0.01 µM) was 0.678. For the same compound, the relative viability ([11]; first compound 0.03162 µM) was 0.669, the relative viability ([11]; first compound 0.1 µM) was 0.642 and the relative viability ([11]; first compound 0.3162 µM) was 0.675. For the same compound, the relative viability ([11]; first compound 1 µM) was 0.604, the relative viability ([12]; first compound 0.01 µM) was 0.426 and the relative viability ([12]; first compound 0.03162 µM) was 0.452. The relative viability ([12]; first compound 0.1 µM) was 0.518, the relative viability ([12]; first compound 0.3162 µM) was 0.486 and the relative viability ([12]; first compound 1 µM) was 0.359. For the same compound, the relative viability ([13]; first compound 0.01 µM) was 0.71, the relative viability ([13]; first compound 0.03162 µM) was 0.759 and the relative viability ([13]; first compound 0.1 µM) was 0.867. The relative viability ([13]; first compound 0.3162 µM) was 0.803, the relative viability ([13]; first compound 1 µM) was 0.725 and the relative viability ([14]; first compound 0.01 µM) was 0.583. It also gave a relative viability ([14]; first compound 0.03162 µM) of 0.768, a relative viability ([14]; first compound 0.1 µM) of 0.704 and a relative viability ([14]; first compound 0.3162 µM) of 0.756. It also gave a relative viability ([14]; first compound 1 µM) of 0.707, a relative viability ([15]; first compound 0.01 µM) of 0.419 and a relative viability ([15]; first compound 0.03162 µM) of 0.38. The relative viability ([15]; first compound 0.1 µM) was 0.408, the relative viability ([15]; first compound 0.3162 µM) was 0.381 and the relative viability ([15]; first compound 1 µM) was 0.358. The relative viability ([16]; first compound 0.01 µM) was 0.481, the relative viability ([16]; first compound 0.03162 µM) was 0.525 and the relative viability ([16]; first compound 0.1 µM) was 0.531. For the same compound, the relative viability ([16]; first compound 0.3162 µM) was 0.594, the relative viability ([16]; first compound 1 µM) was 0.552 and the relative viability ([17]; first compound 0.01 µM) was 0.539. For the same compound, the relative viability ([17]; first compound 0.03162 µM) was 0.8, the relative viability ([17]; first compound 0.1 µM) was 0.848 and the relative viability ([17]; first compound 0.3162 µM) was 0.861. For the same compound, the relative viability ([17]; first compound 1 µM) was 0.56, the relative viability ([18]; first compound 0.01 µM) was 0.784 and the relative viability ([18]; first compound 0.03162 µM) was 0.727. It also gave a relative viability ([18]; first compound 0.1 µM) of 0.779, a relative viability ([18]; first compound 0.3162 µM) of 0.743 and a relative viability ([18]; first compound 1 µM) of 0.48. The relative viability ([19]; first compound 0.01 µM) was 0.673, the relative viability ([19]; first compound 0.03162 µM) was 0.591 and the relative viability ([19]; first compound 0.1 µM) was 0.623. The relative viability ([19]; first compound 0.3162 µM) was 0.842, the relative viability ([19]; first compound 1 µM) was 0.498 and the relative viability ([20]; first compound 0.01 µM) was 0.838. It also gave a relative viability ([20]; first compound 0.03162 µM) of 1.04, a relative viability ([20]; first compound 0.1 µM) of 1.12 and a relative viability ([20]; first compound 0.3162 µM) of 0.974. The relative viability ([20]; first compound 1 µM) was 0.91, the relative viability ([21]; first compound 0.01 µM) was 0.412 and the relative viability ([21]; first compound 0.03162 µM) was 0.377. The relative viability ([21]; first compound 0.1 µM) was 0.33, the relative viability ([21]; first compound 0.3162 µM) was 0.341 and the relative viability ([21]; first compound 1 µM) was 0.219. For the same compound, the relative viability ([22]; first compound 0.01 µM) was 0.578, the relative viability ([22]; first compound 0.03162 µM) was 0.693 and the relative viability ([22]; first compound 0.1 µM) was 0.839. It also gave a relative viability ([22]; first compound 0.3162 µM) of 0.691 and a relative viability ([22]; first compound 1 µM) of 0.629.

— the supplement of paper PMC10307832
